From ChEMBL document CHEMBL6103650, “Hybrid Molecules of Benzothiazole and Hydroxamic Acid as Dual-Acting Biofilm Inhibitors with Antibacterial Synergistic Effect against Pseudomonas aeruginosa Infections” (J Med Chem, 2025)
Active and inactive are the calls of the source. The rule behind the calls is not given here.

Legend:
Pseudomonas aeruginosa [1] = test: Antibacterial activity against Pseudomonas aeruginosa PAO1 infected in BALB/c mouse wound infection model assessed as bacterial survival rate in wound at 1 mg/mL administered to wound once a day for 3 days in dropwise manner; format: functional; conditions: PAO1, 72 h, time 3 day
Pseudomonas aeruginosa [2] = test: Antibiofilm activity against Pseudomonas aeruginosa PA14 assessed as inhibition of biofilm formation incubated for 24 hrs by crystal violet staining based analysis; format: functional, organism-based; conditions: PA14, 24 h
Pseudomonas aeruginosa [3] = test: Antibiofilm activity against Pseudomonas aeruginosa PAO1 assessed as reduction in pFe(III) content incubated for 24 hrs by cell total iron colorimetric assay; format: functional, organism-based; conditions: dose 0.3125-10 µM
Pseudomonas aeruginosa [4] = test: Antibiofilm activity against Pseudomonas aeruginosa PAO1 assessed as inhibition of biofilm formation at 0.15625 to 2.5 uM incubated for 24 hrs by crystal violet staining based analysis; format: functional, organism-based; conditions: dose 0.15625-2.5 µM
RAW264.7 = test: Cytotoxicity against mouse RAW264.7 cells assessed as reduction in cell viability at < 100 uM incubated for 24 hrs by MTT assay; format: toxicity, cell-based; conditions: raw264.7, 24 h
Pseudomonas aeruginosa [5] = test: Antibiofilm activity against Pseudomonas aeruginosa PAO1 assessed as fold increase in pyoverdine level at 10 uM incubated for 2 hrs by fluorescence based analysis; format: functional
[6] = Toxicity in BALB/c mouse wound infection model assessed as heart damage measured for 9 days by H and E staining based analysis; format: tissue-based; conditions: in vivo, 216 h, time 9 day
[7] = Toxicity in BALB/c mouse wound infection model assessed as liver damage measured for 9 days by H and E staining based analysis; format: tissue-based; conditions: in vivo, 216 h, time 9 day
[8] = Inhibition of quorum sensing system in Pseudomonas aeruginosa PAO1-pqsa-gfp assessed as reduction in fluorescence intensity at 0.3125 to 10 uM measured upto 16 hrs by GFP reporter strain assay; conditions: dose 0.3125-10 µM
Pseudomonas aeruginosa [9] = test: Anti-motility activity against Pseudomonas aeruginosa PAO1 assessed as reduction in swimming motility at 10 uM incubated for 24 hrs relative to control; format: functional; set-up: scale not given: the % may be the effect or the level left
Pseudomonas aeruginosa [10] = test: Antibiofilm activity against Pseudomonas aeruginosa PAO1 assessed as inhibition of biofilm formation incubated for 24 hrs by crystal violet staining based analysis; format: functional, organism-based
Pseudomonas aeruginosa [11] = test: Antibacterial activity against Pseudomonas aeruginosa PAO1 assessed as inhibition of bacterial growth incubated for 24 hrs by serial dilution method; format: functional
[12] = Toxicity in BALB/c mouse assessed as kidney damage by H and E staining based analysis; conditions: in vivo
Pseudomonas aeruginosa [13] = test: Antibiofilm activity against Pseudomonas aeruginosa PAO1 assessed as reduction in pFe(III) content incubated for 24 hrs; format: functional
Pseudomonas aeruginosa [14] = test: Anti-motility activity against Pseudomonas aeruginosa PAO1 assessed as reduction in pili formation at 0.3125 to 10 uM incubated for 16 hrs by SEM analysis; format: functional, organism-based; conditions: dose 0.3125-10 µM
Pseudomonas aeruginosa [15] = test: Antivirulence activity in Pseudomonas aeruginosa PAO1 assessed as reduction in pyocyanin production incubated for 24 hrs; format: functional, organism-based; conditions: dose 10.0 µM
Pseudomonas aeruginosa [16] = test: Antibacterial activity against Pseudomonas aeruginosa PAO1 infected in BALB/c mouse wound infection model assessed as bacterial survival rate in wound at 2.5 uM administered to wound once a day for 3 days in dropwise manner in presence of tobramycin; format: functional; conditions: PAO1, 72 h, time 3 day
Pseudomonas aeruginosa [17] = test: Antivirulence activity in Pseudomonas aeruginosa PAO1 assessed as reduction in extracellular polysaccharides production at 10 uM incubated for 24 hrs relative to control; format: functional; set-up: scale not given: the % may be the effect or the level left
Pseudomonas aeruginosa [18] = test: Antivirulence activity in Pseudomonas aeruginosa PAO1 assessed as reduction in elastase production at 10 uM incubated for 24 hrs relative to control; format: functional; set-up: scale not given: the % may be the effect or the level left
Pseudomonas aeruginosa [19] = test: Antibacterial activity against Pseudomonas aeruginosa PAO1 infected in BALB/c mouse wound infection model assessed as reduction in wound area at 2.5 uM administered to wound once a day for 3 days and measured after 9 days in dropwise manner; format: functional; set-up: scale not given: the % may be the effect or the level left; conditions: time 12 day
[20] = Hemolytic activity in mouse red blood cells at < 40 uM; format: toxicity, cell-based; conditions: erythrocyte
Pseudomonas aeruginosa [21] = test: Antibiofilm activity against Pseudomonas aeruginosa PAO1 assessed as inhibition of biofilm formation at 0.15625 uM incubated for 24 hrs by crystal violet staining based analysis relative to control; format: functional
Pseudomonas aeruginosa [22] = test: Anti-motility activity against Pseudomonas aeruginosa PAO1 assessed as reduction in swarming motility at 10 uM incubated for 24 hrs relative to control; format: functional; set-up: scale not given: the % may be the effect or the level left
Pseudomonas aeruginosa [23] = test: Anti-motility activity against Pseudomonas aeruginosa PAO1 assessed as reduction in swarming motility incubated for 24 hrs; format: functional, organism-based; conditions: dose 0.3125-10 µM
Pseudomonas aeruginosa [24] = test: Antibiofilm activity against Pseudomonas aeruginosa PAO1 assessed as increase in pyoverdine level incubated for 2 hrs by fluorescence based analysis; format: functional, organism-based; conditions: dose 0.3125-10 µM
[25] = Toxicity in BALB/c mouse assessed as change in body weight; conditions: in vivo
Pseudomonas aeruginosa [26] = test: Anti-motility activity against Pseudomonas aeruginosa PAO1 assessed as reduction in swimming motility incubated for 24 hrs; format: functional, organism-based; conditions: dose 0.3125-10 µM
[27] = Hemolytic activity in rabbit red blood cells at < 40 uM; format: toxicity, cell-based, Oryctolagus cuniculus; conditions: erythrocyte
[28] = Toxicity in BALB/c mouse wound infection model assessed as lung damage measured for 9 days by H and E staining based analysis; format: tissue-based; conditions: in vivo, 216 h, time 9 day
Pseudomonas aeruginosa [29] = test: Antibiofilm activity against Pseudomonas aeruginosa PA1129 assessed as inhibition of biofilm formation incubated for 24 hrs by crystal violet staining based analysis; format: functional, organism-based
[30] = Toxicity in BALB/c mouse assessed as liver damage by H and E staining based analysis; format: tissue-based; conditions: in vivo
[31] = Inhibition of quorum sensing system in Pseudomonas aeruginosa PAO1-lasB-gfp assessed as reduction in fluorescence intensity at 0.3125 to 10 uM measured upto 16 hrs by GFP reporter strain assay; conditions: dose 0.3125-10 µM
Pseudomonas aeruginosa [32] = test: Antibiofilm activity against Pseudomonas aeruginosa PAO1 assessed as decrease in colony forming counts incubated for 24 hrs by crystal violet staining based analysis; format: functional, organism-based; conditions: dose 0.15625-2.5 µM
Pseudomonas aeruginosa [33] = test: Antibiofilm activity against Pseudomonas aeruginosa PAO1 assessed as fold increase in pyochelin level at 10 uM incubated for 2 hrs by fluorescence based analysis; format: functional
Pseudomonas aeruginosa [34] = test: Antibacterial activity against Pseudomonas aeruginosa PAO1 infected in BALB/c mouse wound infection model assessed as reduction in wound area at 2.5 uM administered to wound once a day for 3 days and measured after 9 days in dropwise manner in presence of ciprofloxacin; format: functional; set-up: scale not given: the % may be the effect or the level left; conditions: time 12 day
Pseudomonas aeruginosa [35] = test: Antibiofilm activity against Pseudomonas aeruginosa PA1121 assessed as inhibition of biofilm formation incubated for 24 hrs by crystal violet staining based analysis; format: functional, organism-based
[36] = Toxicity in BALB/c mouse assessed as lung damage by H and E staining based analysis; conditions: in vivo
Pseudomonas aeruginosa [37] = test: Antivirulence activity in Pseudomonas aeruginosa PAO1 assessed as reduction in pyocyanin at 10 uM production incubated for 24 hrs relative to control; format: functional; set-up: scale not given: the % may be the effect or the level left
Pseudomonas aeruginosa [38] = test: Synergistic […] activity against Pseudomonas aeruginosa PAO1 assessed as fractional inhibitory concentration index measured for 20 hrs in presence of ciprofloxacin by microdilution checkboard assay; format: functional
[39] = Toxicity in BALB/c mouse assessed as heart damage by H and E staining based analysis; format: tissue-based; conditions: in vivo
Pseudomonas aeruginosa [40] = test: Antibiofilm activity against Pseudomonas aeruginosa PAO1 assessed as inhibition of biofilm formation at 2.5 incubated for 24 hrs by crystal violet staining based analysis; format: functional
Pseudomonas aeruginosa [41] = test: Antibiofilm activity against Pseudomonas aeruginosa PAO1 assessed as increase in pyochelin level incubated for 2 hrs by fluorescence based analysis; format: functional, organism-based; conditions: dose 0.3125-10 µM
[42] = Toxicity in zebrafish assessed as survival rate at <100 uM measured upto 120 hrs; set-up: species or system Danio rerio; conditions: in vivo
Pseudomonas aeruginosa [43] = test: Antibacterial activity against Pseudomonas aeruginosa PAO1 infected in BALB/c mouse wound infection model measured after 3 days; format: functional, organism-based; conditions: time 3.0 day

## COc1ccc2nc(NCC(=O)NCCCCC(=O)NO)sc2c1
Pseudomonas aeruginosa [1]
  survival at 1000 µg/mL: 0%
Pseudomonas aeruginosa [2]
  IC50: 1.45 µM
Pseudomonas aeruginosa [3]
  Activity: Dose-dependent-effect
Pseudomonas aeruginosa [4]
  Activity: inactive
RAW264.7
  Activity: Non-toxic
Pseudomonas aeruginosa [5]
  fold change (FC): 3.4
[6]
  Activity: Non-toxic
[7]
  Activity: Non-toxic
[8]
  inhibition: Active
Pseudomonas aeruginosa [9]
  Activity: 64%
Pseudomonas aeruginosa [10]
  Activity: Dose-dependent-effect
Pseudomonas aeruginosa [10]; PAO1, 24 h
  IC50: 0.4 µM
Pseudomonas aeruginosa [11]
  MIC: > 256 µM
[12]
  Activity: Non-toxic
Pseudomonas aeruginosa [13]
  Activity: 19.61
Pseudomonas aeruginosa [14]
  Activity: Active
Pseudomonas aeruginosa [15]
  Activity: Dose-dependent-effect
Pseudomonas aeruginosa [16]
  survival at 2.5 µM: 0.97%
Pseudomonas aeruginosa [17]
  Activity: 58%
Pseudomonas aeruginosa [18]
  Activity: 43%
Pseudomonas aeruginosa [19]
  Activity: 55%
[20]
  Activity: Non-toxic
Pseudomonas aeruginosa [21]
  inhibition at 0.1562 µM: 40%
Pseudomonas aeruginosa [22]
  Activity: 84%
Pseudomonas aeruginosa [23]
  Activity: Dose-dependent-effect
Pseudomonas aeruginosa [24]
  Activity: Dose-dependent-effect
[25]
  Activity: Non-toxic
Pseudomonas aeruginosa [26]
  Activity: Dose-dependent-effect
[27]
  Activity: Non-toxic
[28]
  Activity: Non-toxic
Pseudomonas aeruginosa [29]
  Activity: Active
[30]
  Activity: Non-toxic
[31]
  inhibition: Active
Pseudomonas aeruginosa [32]
  Activity: Dose-dependent-effect
Pseudomonas aeruginosa [33]
  fold change (FC): 1.7
Pseudomonas aeruginosa [34]
  Activity: 38%
Pseudomonas aeruginosa [35]
  Activity: Active
[36]
  Activity: Non-toxic
Pseudomonas aeruginosa [37]
  Activity: 42%
Pseudomonas aeruginosa [38]
  fractional inhibitory concentration index (FICI): 0.25
[39]
  Activity: Non-toxic
Pseudomonas aeruginosa [40]
  inhibition (INH): 65%
Pseudomonas aeruginosa [41]
  Activity: Dose-dependent-effect
[42]
  Activity: Non-toxic
Pseudomonas aeruginosa [43]
  Activity: No effect
